Results published in publication PMC9044549 (RSC Advances, 2021).

How the values were obtained:
[1] = system: HCT-116, HepG-2 and MCF-7 cells; assay type: cell-based; details: Homo sapiens, read-out: IC50 values against the three cell lines (range)
[2] = system: MCF-7 breast cancer cells; experiment: In vitro anti-proliferative activity, MTT assay; assay type: cell-based; details: Homo sapiens, MCF7, read-out: In vitro anti-proliferative activities MCF-7 IC50

SMILES	IC50 [1] [µM]	IC50 [2] [µM]
COc1cc(-c2ccc(-c3nnc(SC)o3)c(C)n2)cc(OC)c1OC [VIIIa, 2-[2-Methyl-6-(3,4,5-trimethoxyphenyl)pyridin-3-yl]-5-(methylthio)-1,3,4-oxadiazole]	10.8 to 31.5	18.2 ± 0.55
CCSc1nnc(-c2ccc(-c3cc(OC)c(OC)c(OC)c3)nc2C)o1 [VIIIb, 2-(Ethylthio)-5-[2-methyl-6-(3,4,5-trimethoxyphenyl)pyridin-3-yl]-1,3,4-oxadiazole]	–	14.8 ± 0.37
COc1cc(-c2ccc(-c3nnc(SCCCBr)o3)c(C)n2)cc(OC)c1OC [VIIIc, 2-[(3-Bromopropyl)thio]-5-[2-methyl-6-(3,4,5-trimethoxyphenyl)pyridin-3-yl]-1,3,4-oxadiazole]	10.8 to 31.5	25.2 ± 0.64
CCCCCCSc1nnc(-c2ccc(-c3cc(OC)c(OC)c(OC)c3)nc2C)o1 [VIIId, 2-(Hexylthio)-5-[2-methyl-6-(3,4,5-trimethoxyphenyl)pyridin-3-yl]-1,3,4-oxadiazole]	10.8 to 31.5	27.2 ± 0.68
COc1cc(-c2ccc(-c3nnc(SCC4CCCCC4)o3)c(C)n2)cc(OC)c1OC [VIIIe, 2-[(Cyclohexylmethyl)thio]-5-[2-methyl-6-(3,4,5-trimethoxyphenyl)pyridin-3-yl]-1,3,4-oxadiazole]	10.8 to 31.5	21.4 ± 0.45
COc1ccc(/C=N/NC(=O)c2ccc(-c3cc(OC)c(OC)c(OC)c3)nc2C)cc1OC [Vc, (E)-N′-(3,4-Dimethoxybenzylidene)-2-methyl-6-(3,4,5-trimethoxyphenyl)nicotinohydrazide]	3.25 to 9.15	9.15 ± 0.31
COc1cc(OC)c(/C=N/NC(=O)c2ccc(-c3cc(OC)c(OC)c(OC)c3)nc2C)c(OC)c1 [Vd, (E)-2-Methyl-N′-(2,4,6-trimethoxybenzylidene)-6-(3,4,5-trimethoxyphenyl)nicotinohydrazide]	10.8 to 31.5	15.8 ± 0.46
COc1cc(-c2ccc(C(=O)N/N=C/c3cc(C)ccc3C)c(C)n2)cc(OC)c1OC [Vf, (E)-N′-(2,5-Dimethylbenzylidene)-2-methyl-6-(3,4,5-trimethoxyphenyl)nicotinohydrazide]	3.25 to 9.15	6.32 ± 0.14

The remaining lines, values ahead:

IC50 [1] [µM]	IC50 [2] [µM]	SMILES
10.8 to 31.5	21.5 ± 0.67	COc1cc(-c2ccc(C(=O)N/N=C/c3ccc(O)cc3)c(C)n2)cc(OC)c1OC [Va, (E)-N′-(4-Hydroxybenzylidene)-2-methyl-6-(3,4,5-trimethoxyphenyl)nicotinohydrazide]
3.25 to 9.15	8.5 ± 0.24	COc1ccccc1/C=N/NC(=O)c1ccc(-c2cc(OC)c(OC)c(OC)c2)nc1C [Vb, (E)-N′-(2-Methoxybenzylidene)-2-methyl-6-(3,4,5-trimethoxyphenyl)nicotinohydrazide]
–	46.6 ± 0.95	CCOc1ccc(/C=N/NC(=O)c2ccc(-c3cc(OC)c(OC)c(OC)c3)nc2C)cc1 [Ve, (E)-N′-(4-Ethoxybenzylidene)-2-methyl-6-(3,4,5-trimethoxyphenyl)nicotinohydrazide]
10.8 to 31.5	31.5 ± 0.7	COc1cc(-c2ccc(C(=O)N/N=C/c3ccc(Cl)cc3)c(C)n2)cc(OC)c1OC [Vg, (E)-N′-(4-Chlorobenzylidene)-2-methyl-6-(3,4,5-trimethoxyphenyl)nicotinohydrazide]
10.8 to 31.5	30.1 ± 0.75	COc1cc(-c2ccc(C(=O)N/N=C/c3cc(Cl)ccc3Cl)c(C)n2)cc(OC)c1OC [Vh, (E)-N′-(2,5-Dichlorobenzylidene)-2-methyl-6-(3,4,5-trimethoxyphenyl)nicotinohydrazide]
3.25 to 9.15	4.82 ± 0.05	COc1cc(-c2ccc(C(=O)N/N=C/c3ccc([N+](=O)[O-])cc3)c(C)n2)cc(OC)c1OC [Vj, (E)-2-Methyl-N′-(4-nitrobenzylidene)-6-(3,4,5-trimethoxyphenyl)nicotinohydrazide]
10.8 to 31.5	17.5 ± 0.57	COc1cc(-c2ccc(C(=O)N/N=C/c3ccncc3)c(C)n2)cc(OC)c1OC [Vk, (E)-2-Methyl-N′-(pyridin-4-ylmethylene)-6-(3,4,5-trimethoxyphenyl)nicotinohydrazide]
